Measured values from patent US8846730B2, “Compounds as cannabinoid receptor ligands” (priority 2008, dated 2014).
Read-outs that look alike come from different tables or passages of the source.

Columns and labels:
[1] = test system: animal models of pain; details: acute thermal, persistent, inflammatory and neuropathic pain models; cited from earlier work
[2] = molecular target: human CB2 receptors (Homo sapiens (Human), UniProt P34972); assay: human CB2 radioligand binding assay ([3H]CP 55,940 competition)
human CB2 receptors, sequence (P34972 whole entry): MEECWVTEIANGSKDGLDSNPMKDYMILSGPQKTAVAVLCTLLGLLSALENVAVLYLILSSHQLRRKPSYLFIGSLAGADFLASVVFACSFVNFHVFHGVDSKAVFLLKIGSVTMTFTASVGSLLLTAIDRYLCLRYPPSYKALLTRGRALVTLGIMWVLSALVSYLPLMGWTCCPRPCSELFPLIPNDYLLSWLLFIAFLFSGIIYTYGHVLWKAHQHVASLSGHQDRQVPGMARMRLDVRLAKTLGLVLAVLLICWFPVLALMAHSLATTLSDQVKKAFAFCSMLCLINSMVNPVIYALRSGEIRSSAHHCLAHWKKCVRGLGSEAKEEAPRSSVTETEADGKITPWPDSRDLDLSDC
Procedure, shortened: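 Membranes from HEK293 cells stably expressing human CB2 (5 μg protein/well) competed against 0.5 nM [3H]CP 55,940 with five concentrations of test ligand (0.01 nM to 10 μM), pH 7.4 Tris buffer with BSA, 90 min at 30 °C. Filtration and scintillation counting; nonspecific binding with 10 μM unlabeled CP 55,940.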

[3] = molecular target: rat CB2 receptors (HEK cells) (Rattus norvegicus (Rat), UniProt Q9QZN9); assay: rat CB2 cyclase functional assay (HitHunter cAMP); format: cell-based
Procedure: The cyclase functional assays were performed using the HitHunter™ cAMP assay kit from DiscoveRx (Fremont, Calif.) according to vendor's protocol. Briefly, HEK cells expressing CB2 or CB1 receptors (rat or human) were detached using cell dissociation buffer (Invitrogen, Carlsbad, Calif.), dispersed and placed in suspension at 10,000 cells per well in 96 well plates prior to the assay. Cell suspensions were incubated at 37° C. for 20 min with variable concentrations of test ligands and or 10 μM CP 55,940-positive control in the presence of a fixed concentration of forskolin (18 μM for rat CB2 and 37 μM for rat CB1) in Dulbescco's phosphate-buffered saline (Invitrogen, Carlsbad, Calif.) supplemented with bovine serum albumin (0.01% final concentration). The reactions were terminated by the addition of lysis buffer and the luminescence was detected following the procedure according to the manufacturer's instructions. EC50 values were calculated using sigmoidal dose-response curve fitting from Prism (GraphPad).

[4] = molecular target: rat CB1 receptors (HEK cells) (Rattus norvegicus (Rat), UniProt P20272); assay: rat CB1 cyclase functional assay (HitHunter cAMP); format: cell-based
rat CB1 receptors (HEK cells), sequence (P20272 whole entry): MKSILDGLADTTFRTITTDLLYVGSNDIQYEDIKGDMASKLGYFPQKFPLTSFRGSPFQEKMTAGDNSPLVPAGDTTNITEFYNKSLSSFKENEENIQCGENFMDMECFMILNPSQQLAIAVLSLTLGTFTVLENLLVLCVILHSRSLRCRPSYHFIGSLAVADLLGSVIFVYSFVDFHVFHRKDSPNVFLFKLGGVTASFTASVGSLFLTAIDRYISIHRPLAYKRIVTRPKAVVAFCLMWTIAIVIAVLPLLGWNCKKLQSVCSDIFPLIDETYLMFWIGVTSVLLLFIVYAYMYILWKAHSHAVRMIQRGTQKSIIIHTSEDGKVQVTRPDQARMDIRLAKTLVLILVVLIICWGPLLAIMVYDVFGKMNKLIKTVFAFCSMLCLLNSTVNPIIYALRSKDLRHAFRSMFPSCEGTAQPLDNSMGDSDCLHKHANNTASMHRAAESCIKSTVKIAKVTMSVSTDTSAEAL

[5] = molecular target: rat CB2 receptors (Rattus norvegicus (Rat), UniProt Q9QZN9); assay: rat CB2 radioligand binding assay ([3H]CP 55,940 competition); details: HEK293 membranes, 0.5 nM [3H]CP 55,940
Procedure, shortened: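 Membranes from HEK293 cells stably expressing rat CB2 (20 μg protein/well) were incubated 45 min at 30 °C with 0.5 nM [3H]CP 55,940 and five displacer concentrations, in pH 7.4 Tris buffer with 0.5 mg/mL BSA. Bound radioactivity was measured by filtration. Nonspecific binding was defined with 10 μM unlabeled CP 55,940.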

[6] = test system: rodent models of pain; details: neuropathic, incisional, chronic and acute inflammatory pain; cited from earlier work
[7] = test system: rat formalin model of persistent pain; details: cited from earlier work
[8] = test system: microglial; details: in vitro; cited from earlier work
[9] = HEK293 membranes, 0.5 nM [3H]CP 55,940, read-out: human CB2 (Ki)
[10] = HEK cells, forskolin 18 μM, read-out: rat CB2 cyclase (EC50)

CN1CCCCC1Cn1cc(C(=O)c2cc([N+](=O)[O-])ccc2I)c2ccccc21 (stereo not drawn) [AM-1241]
analgesic efficacy [1]: robust analgesic efficacy

COCCn1cc(C(C)(C)C)s/c1=N\C(=O)c1cc(C(F)(F)F)ccc1OCc1cnccn1 [Example 41, N-[(2Z)-5-tert-butyl-3-(2-methoxyethyl)-1,3-thiazol-2(3H)-ylidene]-2-(pyrazin-2-ylmethoxy)-5-(trifluoromethyl)benzamide]
Ki [2, 9]: 45 nM | EC50 [3]: 4.49 nM | EC50 [4]: 5.7 µM | Ki [5]: 14 nM

CN1C(=O)CC[C@H]1COc1ccc(C(F)(F)F)cc1C(=O)/N=c1\sc(C(C)(C)C)cn1C[C@H]1CCCO1 [Example 43, N-[(2Z)-5-tert-butyl-3-[(2R)-tetrahydrofuran-2-ylmethyl]-1,3-thiazol-2(3H)-ylidene]-2-{[(2S)-1-methyl-5-oxopyrrolidin-2-yl]methoxy}-5-(trifluoromethyl)benzamide]
Ki [2, 9]: 62 nM | EC50 [3, 10]: 2.09 nM | EC50 [4]: 6.56 µM | Ki [5]: 3.3 nM

CC(C)(C)c1cn(C[C@H]2CCCO2)/c(=N/C(=O)c2cc(C(F)(F)F)ccc2OC[C@@H]2CCCN2)s1 [Example 44, N-[(2Z)-5-tert-butyl-3-[(2R)-tetrahydrofuran-2-ylmethyl]-1,3-thiazol-2(3H)-ylidene]-2-[(2S)-pyrrolidin-2-ylmethoxy]-5-(trifluoromethyl)benzamide]
Ki [2, 9]: 4.6 nM | EC50 [3]: 0.39 nM | EC50 [4]: 4.73 µM | Ki [5]: 2 nM

CCN1CCC[C@H]1COc1ccc(C(F)(F)F)cc1C(=O)/N=c1\sc(C(C)(C)C)cn1C[C@H]1CCCO1 [Example 45, N-[(2Z)-5-tert-butyl-3-[(2R)-tetrahydrofuran-2-ylmethyl]-1,3-thiazol-2(3H)-ylidene]-2-{[(2S)-1-ethylpyrrolidin-2-yl]methoxy}-5-(trifluoromethyl)benzamide]
Ki [2, 9]: 8.2 nM | EC50 [3, 10]: 0.83 nM | EC50 [4]: 5.01 µM | Ki [5]: 8.6 nM

CC(C)N1CCC[C@H]1COc1ccc(C(F)(F)F)cc1C(=O)/N=c1\sc(C(C)(C)C)cn1C[C@H]1CCCO1 [Example 46, N-[(2Z)-5-tert-butyl-3-[(2R)-tetrahydrofuran-2-ylmethyl]-1,3-thiazol-2(3H)-ylidene]-2-{[(2S)-1-isopropylpyrrolidin-2-yl]methoxy}-5-(trifluoromethyl)benzamide]
Ki [2, 9]: 102 nM | EC50 [3, 10]: 7.32 nM | EC50 [4]: 5.42 µM | Ki [5]: 21 nM

CC(C)(C)c1cn(C[C@H]2CCCO2)/c(=N/C(=O)c2cc(C(F)(F)F)ccc2OC[C@@H]2CCCN2S(C)(=O)=O)s1 [Example 48, N-[(2Z)-5-tert-butyl-3-[(2R)-tetrahydrofuran-2-ylmethyl]-1,3-thiazol-2(3H)-ylidene]-2-{[(2S)-1-(methylsulfonyl)pyrrolidin-2-yl]methoxy}-5-(trifluoromethyl)benzamide]
Ki [2, 9]: 16 nM | EC50 [3, 10]: 0.39 nM | EC50 [4]: 8.65 µM | Ki [5]: 3 nM

CC(C)(C)c1cn(C[C@H]2CCCO2)/c(=N/C(=O)c2cc(C(F)(F)F)ccc2OC[C@H]2CCC[N+]2(C)[O-])s1 (stereo partly drawn) [Example 49]
Ki [2, 9]: 24 nM | EC50 [3, 10]: 0.45 nM | EC50 ([4]; HEK cells, forskolin 37 μM, read-out: rCB1 cyclase (EC50)): 7.76 µM | Ki [5]: 12 nM

CC(C)(O)CCOc1ccc(C(F)(F)F)cc1C(=O)/N=c1\sc(C(C)(C)C)cn1C[C@H]1CCCO1 [Example 50, N-[(2Z)-5-tert-butyl-3-[(2R)-tetrahydrofuran-2-ylmethyl]-1,3-thiazol-2(3H)-ylidene]-2-(3-hydroxy-3-methylbutoxy)-5-(trifluoromethyl)benzamide]
Ki [2, 9]: 1.3 nM | EC50 [3]: 1.21 nM | EC50 [4]: 1.87 µM | Ki [5]: 0.5 nM

CN1CCC[C@H]1COc1ccc(C(F)(F)F)cc1C(=S)/N=c1\sc(C(C)(C)C)cn1C[C@H]1CCCO1 [Example 51, N-[(2Z)-5-tert-butyl-3-[(2R)-tetrahydrofuran-2-ylmethyl]-1,3-thiazol-2(3H)-ylidene]-2-{[(2S)-1-methylpyrrolidin-2-yl]methoxy}-5-(trifluoromethyl)benzenecarbothioamide]
Ki [2, 9]: 1.3 nM | EC50 [3, 10]: 0.34 nM | EC50 [4]: 1.32 µM | Ki [5]: 0.9 nM

CN1C[C@@H](F)C[C@H]1COc1ccc(C(F)(F)F)cc1C(=O)/N=c1\sc(C(C)(C)C)cn1C[C@H]1CCCO1 [Example 53, N-[(2Z)-5-tert-butyl-3-[(2R)-tetrahydrofuran-2-ylmethyl]-1,3-thiazol-2(3H)-ylidene]-2-{[(2S,4S)-4-fluoro-1-methylpyrrolidin-2-yl]methoxy}-5-(trifluoromethyl)benzamide]
Ki [2, 9]: 3 nM | EC50 [3, 10]: 0.12 nM | EC50 [4]: 1.13 µM | Ki [5]: 3.6 nM

CN1C[C@H](F)C[C@H]1COc1ccc(C(F)(F)F)cc1C(=O)/N=c1\sc(C(C)(C)C)cn1C[C@H]1CCCO1 [Example 54, N-[(2Z)-5-tert-butyl-3-[(2R)-tetrahydrofuran-2-ylmethyl]-1,3-thiazol-2(3H)-ylidene]-2-{[(2S,4R)-4-fluoro-1-methylpyrrolidin-2-yl]methoxy}-5-(trifluoromethyl)benzamide]
Ki [2, 9]: 2 nM | EC50 [3, 10]: 0.15 nM | EC50 [4]: 0.362 µM | Ki [5]: 1.5 nM

CC(C)(C)c1cn(C[C@H]2CCCO2)/c(=N/C(=O)c2cc(C(F)(F)F)ccc2OCc2ccn[nH]2)s1 [Example 56, N-[(2Z)-5-tert-butyl-3-[(2R)-tetrahydrofuran-2-ylmethyl]-1,3-thiazol-2(3H)-ylidene]-2-(1H-pyrazol-5-ylmethoxy)-5-(trifluoromethyl)benzamide]
Ki [2, 9]: 11 nM | EC50 [3, 10]: 0.76 nM | EC50 [4]: 3.05 µM | Ki [5]: 5.1 nM

CC(C)(C)c1cn(C[C@H]2CCCO2)/c(=N/C(=O)c2cc(C(F)(F)F)ccc2OCCNCCO)s1 [Example 58, N-[(2Z)-5-tert-butyl-3-[(2R)-tetrahydrofuran-2-ylmethyl]-1,3-thiazol-2(3H)-ylidene]-2-{2-[(2-hydroxyethyl)amino]ethoxy}-5-(trifluoromethyl)benzamide]
Ki [2, 9]: 34 nM | EC50 [3]: 0.18 nM | EC50 [4]: 2.58 µM | Ki [5]: 10 nM

CN1CCC[C@H]1COc1ccc(C#N)cc1C(=O)/N=c1\sc(C(C)(C)C)cn1C[C@H]1CCCO1 [Example 59, N-[(2Z)-5-tert-butyl-3-[(2R)-tetrahydrofuran-2-ylmethyl]-1,3-thiazol-2(3H)-ylidene]-5-cyano-2-{[(2S)-1-methylpyrrolidin-2-yl]methoxy}benzamide]
Ki [2, 9]: 43 nM | EC50 [3, 10]: 0.13 nM | EC50 [4]: 2.27 µM | Ki [5]: 9.4 nM

CC(COc1ccc(C(F)(F)F)cc1C(=O)/N=c1\sc(C(C)(C)C)cn1C[C@H]1CCCO1)=NOC1CCCCO1 (stereo partly drawn) [Example 63, N-[(2Z)-5-tert-butyl-3-[(2R)-tetrahydrofuran-2-ylmethyl]-1,3-thiazol-2(3H)-ylidene]-2-({2-[(tetrahydro-2H-pyran-2-yloxy)imino]propyl}oxy)-5-(trifluoromethyl)benzamide]
Ki [2]: 25 nM | EC50 [3, 10]: 2.15 nM | EC50 [4]: > 27 µM | Ki [5]: 6.6 nM

CC(C)(C)c1cn(C[C@H]2CCCO2)/c(=N/C(=O)c2cc(C(F)(F)F)ccc2OC[C@@H]2CNCCO2)s1 [Example 66, N-[(2Z)-5-tert-butyl-3-[(2R)-tetrahydrofuran-2-ylmethyl]-1,3-thiazol-2(3H)-ylidene]-2-[(2S)-morpholin-2-ylmethoxy]-5-(trifluoromethyl)benzamide]
Ki [2, 9]: 21 nM | EC50 [3]: 0.37 nM | EC50 [4]: 5.05 µM | Ki [5]: 5.1 nM

CC(C)(C)c1cn(C[C@H]2CCCO2)/c(=N/C(=O)c2cc(C(F)(F)F)ccc2OC[C@H](N)CO)s1 [Example 69, 2-{[(2R)-2-amino-3-hydroxypropyl]oxy}-N-[(2Z)-5-tert-butyl-3-[(2R)-tetrahydrofuran-2-ylmethyl]-1,3-thiazol-2(3H)-ylidene]-5-(trifluoromethyl)benzamide]
Ki [2]: 3.6 nM | EC50 [3, 10]: 0.14 nM | EC50 [4]: 1.61 µM | Ki [5]: 0.9 nM

COc1ccc2c(c1)c(CCN1CCOCC1)c(C)n2C(=O)c1cccc(Cl)c1Cl [GW405833]
efficacy in pain models [6]: efficacious

CCCCCCC(C)(C)c1cc(OC)c([C@@H]2C=C(CO)[C@@H]3C[C@H]2C3(C)C)c(OC)c1 [HU-308]
antinociceptive response [7]: elicits an antinociceptive response

CCCC(C)(C)c1ccc2c(c1)OC(C)(C)[C@@H]1CC=C(C)C[C@@H]21 [JWH-133]
effect on β-amyloid-induced microglial activation and neurotoxicity [8]: abrogated β-amyloid-induced microglial activation and neurotoxicity
